Source: patent publication US5274121A, “N-methyl-N-[4-(1-pyrrolidinyl)-2-butynyl]amide congeners as muscarinic agents” (priority 1992, dated 1993)
Like-named read-outs stand apart in the source and are kept apart here.

Columns and labels:
[1] = target: T1, muscarinic receptors, SK-N-SH cell membranes (m4 AChR) (Homo sapiens, UniProt P20309); assay: Inhibition of [3H]-NMS binding to membranes from SK-N-SH cells; conditions: for inhibition at 50 µM: read-out: binding (% inhibition of 3H-NMS binding); for inhibition at 100 µM: conc. of compounds = 100 μM
T1 construct: membranes from SK-N-SH cells; endogenous in cells; host or cells: SK-N-SH human neuroblastoma cells (crude membrane fraction)
Excerpt: (§1) Compounds of the present invention were screened for their biological activity. Assay systems using SK-N-SH human neuroblastoma cells which express only m4 -AChRs coupled to PI turnover, and NG108-15 neuroblastoma x glioma cells which express only m3 AChRs coupled to adenylate cyclase inhibition were used.
(§2) Compounds of the present invention were also screened for their relative binding affinities. Assay systems which measured the inhibition of ^3 H-N-methylscopolamine (^3 H-NMS) binding to membranes from NG108-15 cells and membranes from SK-N-SH cells were used.
(§3) Inhibition of [^3 H]-NMS binding
(§4) Cells were grown to confluence, harvested, and a crude membrane fraction was obtained. […] The total volume was 1 mL. The incubation was terminated by rapid filtration over GF/B filters using a Brandel cell harvester. The filters were washed three times with ice-cold 0.9% NaCl, equilibrated in scintillation counting fluid and counted on a Beckman LS 5801 liquid scintillation counter at 47% efficiency. Non-specific binding was determined by coincubation with 1 μM atropine, and amounted to less than 15% of total counts. It was routinely subtracted from the total counts.

[2] = system: NG108-15 neuroblastoma x glioma cells (m3 AChR); assay: Inhibition of PGE1-stimulated cAMP levels in NG108-15 cells; assay type: cell-based; conditions: read-out: cAMP Inhib (relative to OXO-M)
[3] = target: T2, muscarinic receptors, NG108-15 cell membranes (m3 AChR) (Mus musculus, UniProt P32211); assay: Inhibition of [3H]-NMS binding to membranes from NG108-15 cells; conditions: for inhibition at 50 µM: read-out: binding (% inhibition of 3H-NMS binding); for inhibition at 100 µM: conc. of compounds = 100 μM
T2 construct: membranes from NG108-15 cells; endogenous in cells; host or cells: NG108-15 neuroblastoma x glioma hybrid cells (crude membrane fraction)
T2 sequence (P32211 1-479): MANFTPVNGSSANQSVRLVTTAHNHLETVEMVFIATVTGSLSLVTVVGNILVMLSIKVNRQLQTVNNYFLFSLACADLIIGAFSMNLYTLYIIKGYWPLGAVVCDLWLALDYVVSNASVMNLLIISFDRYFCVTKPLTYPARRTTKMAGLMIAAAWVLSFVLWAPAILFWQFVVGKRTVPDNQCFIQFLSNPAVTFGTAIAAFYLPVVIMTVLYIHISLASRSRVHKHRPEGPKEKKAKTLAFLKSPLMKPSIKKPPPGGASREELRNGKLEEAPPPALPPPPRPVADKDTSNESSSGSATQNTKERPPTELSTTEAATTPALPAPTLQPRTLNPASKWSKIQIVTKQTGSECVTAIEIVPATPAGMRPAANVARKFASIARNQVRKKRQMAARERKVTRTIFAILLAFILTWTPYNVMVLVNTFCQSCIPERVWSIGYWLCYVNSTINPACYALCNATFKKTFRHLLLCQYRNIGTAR
Excerpt: as §1, §2, §3, §4

[4] = system: SK-N-SH human neuroblastoma cells (m4 AChR); assay: Stimulation of PI turnover in SK-N-SH cells; assay type: cell-based; conditions: Homo sapiens, 0.5 h
Experimental: (§5) Compounds of the present invention were tested for their binding affinities and activation of second messengers in selective muscarinic cholinergic receptor systems. It is believed that m1 -, m4 -, and m5 AChRs couple exclusively to PI turnover, whereas m2 - and m3 -AChRs couple only to adenylate cyclase inhibition.
as §1
Stimulation of PI turnover in SK-N-SH cells
Cells were plated into 24-well plates at 100,000 cells per well. After 24 hours, they were labeled overnight with 2 μCi per well of [^3 H]-myo-inositol (American Radiolabeled Chemicals, Inc., St. Louis, Mo.; 15 Ci/mM; 2 μL of stock per mL of media). The cells were then rinsed twice with 10 mM LiCl in DMEM-Hepes and the cells were incubated in this solution for 5 min at 37° C. The indicated compound was then added at a final concentration of 100 μM and the cells were incubated for another 30 min at 37° C. The reaction was stopped by aspirating the solution and adding cold methanol to the cells. After transferring the cells to a glass tube and sonicating briefly, chloroform and water were added to make a two-phase system. The upper aqueous phase was applied to 0.6 mL anion exchange columns (AG X8, Bio-Rad) and the columns were washed and total inositol phosphates were eluted with 1M ammonium formate and 0.1M formic acid.

muscarinic receptors = conditions: literature; cited from earlier work
[5] = system: NG108-15 neuroblastoma x glioma cells (m3 AChR); assay: Inhibition of PGE1-stimulated cAMP levels in NG108-15 cells; assay type: cell-based; conditions: for inhibition at 100 µM: NG108-15, NG108-15 cells, read-out: cAMP Inhib; for inhibition at 100 µM / cAMP Inhib: relative to control with no compounds added, conc. of compounds = 100 μM; for cAMP Inhib: NG108-15 cells, 100 µM
Experimental: as §5, §1
Inhibition of PGE1 -stimulated cAMP levels in NG108-15 cells
Cells were plated in 24-well plates and were grown to 90% confluence. The growth media was then replaced with a solution of 1 mM IBMX in DMEM-Hepes (0.5 mL per well) and the cells were incubated for 10 min at 37° C. Agonists were then added at a final concentration of 100 μM, along with PGE1 (final conc, 5 μM), and the cells were incubated for a further 15 min at 37° C. The reaction Was terminated by aspirating the solution and adding 0.5 mL of 0.1N HCl. In order to extract the cAMP from the cells, they were incubated in 0.1 N HCl for 30 min at room temperature. An aliquot (35 50 μL) was removed, lyophilized, and assayed for cAMP by radioimmunoassay.

m5 AChR = conditions: cited from earlier work
m3 AChR = conditions: cited from earlier work
M1 AChRs = conditions: M1 AChR; cited from earlier work
m4 AChR = conditions: cited from earlier work
m2 AChR = conditions: cited from earlier work
M2 AChRs = conditions: M2 AChR; cited from earlier work
[6] = SK-N-SH cells, conc. of compound = 50 μM
[7] = 0.25 h, NG108-15 cells, data relative to OXO-M, conc. of compounds = 50 μM
[8] = NG108-15 cells, conc. of compound = 50 μM
[9] = SK-N-SH cells, data relative to OXO-M, conc. of compounds = 100 μM, read-out: Pi turnover (relative to OXO-M)
[10] = SK-N-SH cells, percent relative to the activity of OXO-M, conc. of compounds = 100 μM, read-out: Pi turnover

T1 sequence (P20309 whole entry): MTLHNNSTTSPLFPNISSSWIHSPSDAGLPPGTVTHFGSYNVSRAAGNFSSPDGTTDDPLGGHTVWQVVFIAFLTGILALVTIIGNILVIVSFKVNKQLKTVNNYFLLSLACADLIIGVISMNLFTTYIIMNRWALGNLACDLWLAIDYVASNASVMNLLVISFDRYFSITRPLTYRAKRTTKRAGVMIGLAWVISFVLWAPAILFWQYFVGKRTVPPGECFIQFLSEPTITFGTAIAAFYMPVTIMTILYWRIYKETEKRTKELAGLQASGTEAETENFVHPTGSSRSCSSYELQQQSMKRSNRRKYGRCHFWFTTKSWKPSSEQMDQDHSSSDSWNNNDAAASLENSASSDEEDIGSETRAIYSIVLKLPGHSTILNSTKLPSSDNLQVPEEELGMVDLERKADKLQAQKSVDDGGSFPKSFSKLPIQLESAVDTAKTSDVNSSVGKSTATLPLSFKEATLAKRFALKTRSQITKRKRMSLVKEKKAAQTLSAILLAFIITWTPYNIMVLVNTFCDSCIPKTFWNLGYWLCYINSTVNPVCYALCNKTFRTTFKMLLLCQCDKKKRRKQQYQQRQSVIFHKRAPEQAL

`CN(CC#CCN1CCCC1)CC1OCCO1` [Compound 029, N-(2,5-dioxolylmethyl)-N-methyl-4-(1-pyrrolidinyl)-2-butynamine] gave an inhibition at 50 µM [1, 6] of 19 ± 5%, an Emax at 50 µM [2, 7] of 40 ± 10% and an inhibition at 50 µM [3, 8] of 5 ± 5%.

With `CN(CC#CCN1CCCC1)C(=O)c1ccccc1` [Compound 032] the inhibition at 50 µM [1, 6] was 20 ± 5%, the Emax at 50 µM [2, 7] was 50 ± 20% and the inhibition at 50 µM [3, 8] was 7 ± 4%. The Emax at 100 µM [4, 9] was 4 ± 2%.

In the case of `CN(CC#CCN1CCCC1)C(=O)CCC(=O)NCCN` [Compound 019, N-Methyl-N-[4-(1-pyrrolidinyl)-2-butynyl]-2-[4-(2-aminoethyl)carboxamido]propanamide], the inhibition at 50 µM [1, 6] is reported as 25 ± 5%, the Emax at 50 µM [2, 7] is reported as 10 ± 10% and the inhibition at 50 µM [3, 8] is reported as 14 ± 2%.

`CN(CC#CCN1CCCC1)C(=O)CCC(=O)O` [Compound 008, N-Methyl-N-[4-(1-pyrrolidinyl)-2-butynyl]-3-carboxypropanamide] showed an inhibition at 50 µM [1, 6] of 7 ± 2%, an Emax at 50 µM [2, 7] of 10 ± 10% and an inhibition at 50 µM [3, 8] of 1 ± 1%.

In the case of `O=C1CCCN1CC#CCN1CCCC1` [oxotremorine], the “muscarinic activity, in words” value (muscarinic receptors) is listed as “potent and moderately selective central muscarinic agonist”.

Compound `CN(CC#CCN1CCCC1)C(=O)c1cccc(Cl)c1` [Compound 026] has an inhibition at 50 µM [1, 6] of 27 ± 10%, an Emax at 50 µM [2, 7] of 30 ± 10% and an inhibition at 50 µM [3, 8] of 17 ± 4%. For the same compound, the Emax at 100 µM [4, 9] was 1 ± 1%.

For `CN(CC#CCN1CCCC1)C(=O)Oc1ccc(Cl)cc1` [Compound 027], the inhibition at 50 µM [1] was 62 ± 1%, the Emax at 50 µM ([2]; NG108-15, 0.25 h) was 40 ± 10% and the inhibition at 50 µM [3] was 27 ± 4%. For the same compound, the Emax at 100 µM ([4]; SK-N-SH, read-out: Pi turnover (relative to OXO-M)) was 1 ± 1%.

In the case of `CC(=O)N(C)CC#CCN1CCCC1` [UH 5, reference compound], the “muscarinic activity, in words” value (muscarinic receptors) is given as “maintains agonist activity and is nearly equi-potent to oxotremorine”, the Emax at 100 µM [4, 10] is given as 54% and the “agonist selectivity, in words” value ([5]; NG108-15 (cAMP) versus SK-N-SH (PI turnover)) is given as “acted as an agonist in both systems”. For the same compound, the inhibition at 100 µM [5] was 63.2 ± 6% and the “cAMP Inhib” value [5] was 63%.

Compound `CC(=O)N(C)C(C)C#CCN1CCCC1` (stereo not drawn) [BM 5, reference compound] has an inhibition at 50 µM [1, 6] of 95 ± 1%, an inhibition at 100 µM ([1]; SK-N-SH cells) of 99 ± 1% and an inhibition at 50 µM [3, 8] of 91 ± 1%. The inhibition at 100 µM ([3]; NG108-15 cells) was 97 ± 2% and the “muscarinic activity, in words” value (muscarinic receptors) was “potent muscarinic agent with presynaptic antagonist and postsynaptic agonist activity”.

For `COC(=O)CCC(=O)N(C)CC#CCN1CCCC1` [Compound 009, N-Methyl-N-[4-(1-pyrrolidinyl)-2-butynyl]-3-methoxycarbonylpropanamide], the inhibition at 50 µM [1, 6] was 8 ± 1%, the Emax at 50 µM [2, 7] was 10 ± 10% and the inhibition at 50 µM [3, 8] was 5 ± 3%.

Compound `COc1ccc(NC(=O)N(C)CC#CCN2CCCC2)cc1` [Compound 028] has an inhibition at 50 µM [1, 6] of 61 ± 12%, an Emax at 50 µM [2, 7] of 20 ± 10% and an inhibition at 50 µM [3, 8] of 24 ± 6%.

For `CC(=O)NCCNC(=O)CCC(=O)N(C)CC#CCN1CCCC1` [Compound 023], the inhibition at 50 µM [1, 6] was 6 ± 5%, the Emax at 50 µM [2, 7] was 20 ± 10% and the inhibition at 50 µM [3, 8] was 6 ± 4%. It also gave an Emax at 100 µM [4, 9] of 6 ± 4%.

`CN(CC#CCN1CCCC1)CCC1OCCO1` [Compound 031] gave an inhibition at 50 µM [1, 6] of 20 ± 3%, an Emax at 50 µM [2, 7] of 50 ± 10% and an inhibition at 50 µM [3, 8] of 7 ± 5%.

In the case of `CN1CCN(CC(=O)N2c3ccccc3C(=O)Nc3cccnc32)CC1` [pirenzepine], the affinity for pirenzepine (m5 AChR) is listed as “intermediate affinity”, the affinity for pirenzepine (m3 AChR) is listed as “intermediate affinity” and the affinity for pirenzepine (M1 AChRs) is listed as “high-affinity”. The affinity for pirenzepine (m4 AChR) was “high affinity”, the affinity for pirenzepine (m2 AChR) was “low affinity” and the affinity for pirenzepine (M2 AChRs) was “low-affinity”.

For `C[N+](C)(C)CC#CCN1CCCC1=O` [OXO-M, oxotremorine-M, reference compound], the inhibition at 50 µM [1, 6] was 49 ± 12%, the inhibition at 100 µM ([1]; SK-N-SH cells) was 52.1 ± 1.2% and the Emax at 50 µM [2, 7] was 100%. The inhibition at 50 µM [3, 8] was 74 ± 3%, the inhibition at 100 µM ([3]; NG108-15 cells) was 96.2 ± 2.1% and the Emax at 100 µM [4, 9] was 100%. The Emax at 100 µM [4, 10] was 100%, the inhibition at 100 µM [5] was 64.1 ± 1.9% and the “cAMP Inhib” value [5] was 65±3%.
